Reference: patent publication US20170327455A1, “Omefibrates for Treating Dyslipidemia and Cardiovascular Disease” (Jiva Pharma, Inc., priority 2014, published 2017)
“Also recorded” adds a separate entry of the source.

How the values were obtained:
PPARα = biological target: T1, PPARα (Homo sapiens, UniProt Q07869); test: PPARα agonist assay: GAL4-PPAR ligand-binding domain luciferase reporter in live cells; format: cell-based; settings: FIG. 1; for activation of PPARα transcriptional activity (normalized luciferase activity): GAL4-regulated luciferase reporter, live cells
T1 construct: expressed in transfected cells
T1 sequence (Q07869 239-466 limits assumed): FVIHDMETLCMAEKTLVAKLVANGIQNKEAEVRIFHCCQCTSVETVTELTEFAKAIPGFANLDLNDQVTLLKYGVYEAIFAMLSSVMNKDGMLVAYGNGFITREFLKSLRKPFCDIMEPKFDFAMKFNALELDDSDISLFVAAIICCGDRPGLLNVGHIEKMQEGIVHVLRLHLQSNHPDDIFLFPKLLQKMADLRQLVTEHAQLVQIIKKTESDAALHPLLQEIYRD
Method: The activity of JIVA-0018, JIVA-0019 and JIVA-0020 was determined in a PPARα-dependent transcription assay. This assay was carried out in live cells treated with these above compounds, and provides a direct measurement of a compound's ability to activate PPARα. This PPARα activity assay is a standard nuclear receptor ligand activity assay that utilizes the ligand-binding domain of the PPAR receptor fused to a heterologous GAL4 DNA binding domain. The transcriptional read-out is from a GAL4-regulated luciferase reporter. In this assay, compounds that activate the receptor cause an increase in luciferase activity measured in a luminometer.

PPARδ = biological target: T2, PPARδ (Homo sapiens, UniProt Q03181); test: PPARδ Agonist Assay (luciferase reporter); format: cell-based; settings: FIG. 2
T2 construct: expressed in transfected cells
T2 sequence (Q03181 211-439 limits assumed): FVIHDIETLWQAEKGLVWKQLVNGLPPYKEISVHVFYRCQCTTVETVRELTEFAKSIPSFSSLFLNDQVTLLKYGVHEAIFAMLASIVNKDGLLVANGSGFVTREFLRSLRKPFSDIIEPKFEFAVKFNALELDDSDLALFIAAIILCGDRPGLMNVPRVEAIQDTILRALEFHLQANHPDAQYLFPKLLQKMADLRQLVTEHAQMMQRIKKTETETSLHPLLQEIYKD

Q: Which “activation of PPARα transcriptional activity (normalized luciferase activity)” value (“activation … (normalized luciferase activity)” below) (PPARα) does the source give for `CC/C=C\C/C=C\C/C=C\C/C=C\C/C=C\CCCCC(C)(C)C(=O)O` [JIVA-0018, EPA Fibrate or EPA-Fibric Acid] here?
A: neither the EPA-fibrate, JIVA-0018 nor the DHA-fibrate, JIVA-0020 stimulated PPARα activity; also recorded: at the base line

Q: What about the “activity on PPARδ (normalized luciferase activity)” value (PPARδ) of the same compound?
A: at the base line

Q: How did the “activation … (normalized luciferase activity)” value (PPARα) turn out when `CC/C=C\C/C=C\C/C=C\CCCCCCCCC(C)(C)C(=O)O` [JIVA-0019, ALA Fibrate] was run?
A: strongly activated PPARα; also recorded: potent and selective activator of PPARα

Q: What about the “activity on PPARδ (normalized luciferase activity)” value (PPARδ) of the same compound?
A: at the base line

Q: DHA Fibrate [JIVA-0020] was tested. Which “activation … (normalized luciferase activity)” value (PPARα) did it give?
A: neither the EPA-fibrate, JIVA-0018 nor the DHA-fibrate, JIVA-0020 stimulated PPARα activity

Q: And the EC50 (PPARα; estimated from the data, read-out: EC50 for activation of PPARα)?
A: > 20 µM
